We go through three molecules from patent US20260297031A1, “HYDROXYLAMINE-BASED BCR-ABL1 INHIBITORS FOR TREATMENT OF CANCER” (University of Georgia Research Foundation, Inc., priority 2023, published 2026).

Data set [1] in a line: Aqueous solubility. On the procedure:
Solubility Determinations (Independently Performed by Pharmaron Inc., Ninqbo, CN)
Test compounds and control compounds (progesterone or diclofenac) were initially prepared as 10 mM DMSO stock solutions. […] After such time, plugs and stir sticks were removed and the samples from the solubility sample plate were transferred into the filter plate. All the samples were then filtered and 5 μL of filtrate was taken and added along with 5 μL of DMSO and 490 μL of a 1:1 (v/v) mixture of H2O and acetonitrile containing internal standard (100 nM alprazolam, 200 nM Caffeine and 100 nM tolbutamide) to the plate yielding a final concentration of 3 μM. The samples were then analyzed by LC-MS and diluted according to the peak shape with ultrapure water.
Filtrate was analyzed and quantified against a standard of known concentration using LC coupled with MS peak identification and quantitation. Solubility values of test compounds and progesterone were calculated as follows and are presented as the mean of n=2 replicates: […]

The nature of data set [2]: Metabolic stability in rat liver microsomes. The data set is classed as in vitro ADME. Particulars: rat liver microsomes. On the procedure: (§1) Metabolic Stability in Liver Microsomes (Independently Performed by Pharmaron Inc., Ninqbo, CN)
(§2) This experiment was carried out under two separate set of conditions: i) with Cofactors (NADPH), which consisted of adding 25 μL of 10 mM NADPH to the incubations, giving a final NADPH concentration of 1 mM, and ii) without Cofactors (NADPH), which consisted of adding 25 μL of 100 mM phosphate buffer to the incubations. Under both sets of conditions, the final concentration of microsomes were 0.5 mg/mL. […] Samples were then centrifuged at 3,220 g for 40 min and aliquots of 100 μL of the supernatant were mixed with 100 μL of ultra-pure H2O and analyzed by LC-MS/MS.
(§3) Peak areas were determined from extracted ion chromatograms. The slope value, k, was determined by linear regression of the natural logarithm of the remaining percentage of the parent drug vs incubation time curve.
Background: Liver microsomes are a subcellular fraction often used to study metabolism.

For data set [3], the target named is cSRC (Homo sapiens, UniProt P12931). In words: KinaseProfiler radiometric kinase assay, cSRC wt. The data set is classed as biochemical. Particulars: [ATP] = 10 μM; mean of n = 2.
cSRC, sequence (P12931 whole entry): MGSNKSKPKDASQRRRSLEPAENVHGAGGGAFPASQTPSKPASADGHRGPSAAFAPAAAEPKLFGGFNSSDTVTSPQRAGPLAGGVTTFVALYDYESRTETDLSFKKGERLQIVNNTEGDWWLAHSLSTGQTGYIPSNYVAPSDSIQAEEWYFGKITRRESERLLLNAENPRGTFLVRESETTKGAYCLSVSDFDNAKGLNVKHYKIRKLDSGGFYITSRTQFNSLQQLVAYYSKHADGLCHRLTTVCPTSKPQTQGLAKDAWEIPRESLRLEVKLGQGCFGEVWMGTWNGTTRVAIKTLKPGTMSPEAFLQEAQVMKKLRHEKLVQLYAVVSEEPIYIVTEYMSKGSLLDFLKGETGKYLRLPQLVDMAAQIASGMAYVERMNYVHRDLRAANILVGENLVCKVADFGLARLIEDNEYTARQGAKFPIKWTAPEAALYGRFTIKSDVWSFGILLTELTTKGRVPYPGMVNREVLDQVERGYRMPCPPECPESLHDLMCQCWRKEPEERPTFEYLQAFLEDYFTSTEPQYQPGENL
For data set [4], the target named is T1, BCR-ABL1 wt (Homo sapiens, UniProt P00519).
T1 construct: called BCR-ABL1 in the text
The experiment in a line: KinaseProfiler radiometric kinase assay, BCR-ABL1 wt. The data set is classed as biochemical. Particulars: [ATP] = 10 μM; mean of n = 2.

Data set [5] is described as follows: Plasma protein binding by equilibrium dialysis, rat plasma. The data set is classed as in vitro ADME. Particulars: plasma, 5 μM, read-out: fu, plasma %. On the procedure: (§4) Plasma Protein Binding by Equilibrium Dialysis (Independently Performed by Pharmaron Inc., Ninqbo, CN)
(§5) Initially, 1 mM solutions of test compounds and the control compound (Ketoconzaole) were prepared in DMSO. After this, dialysis membranes were soaked in ultrapure water for 60 min to separate strips, followed by 20% aq. ethanol for 20 min, and finally in a dialysis buffer for 20 min. […] After this, 597 μL of blank plasma solution followed by 3 μL of the working solutions of either test compounds or control compound were added to a new plastic plate or separate plastic tube and the solutions were vortexed at 1,000 rpm for 2 min. Immediately after this, 50 μL of spiked plasma solution suspension was transferred to a 96-well plate to act as T=0 control. The remaining samples were treated in the same manner, whereby all remaining spiked plasma solutions were added to the incubator for the duration of the study.
Cells were then loaded with 120 μL of the plasma samples and dialyzed against an equal volume of dialysis buffer (PBS). […] At the end of incubation, the lid was removed and 50 μL of post-dialysis samples were removed from both buffer and plasma solution chambers into a separate 96-well plate for analysis. The plasma solutions (50 μL) were then added to the buffer samples along with an equal volume of PBS (50 μL) to the collected plasma solution samples. The plate was shaken at 1,000 rpm for 2 min and 400 μL of acetonitrile containing an appropriate internal standard was added to precipitate protein and release compound. The samples were then vortexed at 1,000 rpm for an additional 10 min followed by centrifugation at 3,220 g for 30 min. […] The samples were analyzed by LC-MS/MS and 100 μL of distilled water was added to each sample prior to analysis.
(§6) Concentrations of test compounds and control compound in buffer and plasma solution chambers was determined and percentages of test compounds and control compound bound using the following equations (mean of n=2 replicates): […]

Data set [6] can be described thus: Metabolic stability in human liver microsomes. The data set is classed as in vitro ADME. Particulars: human liver microsomes. On the procedure: as §1, §2, §3
The target of data set [7] is T2, BCR-ABL1 Q252H (Homo sapiens, UniProt P00519, Q252H).
T2 construct: BCR (fusion partner, as the printed name BCR-ABL1 says)
The experiment in a line: KinaseProfiler radiometric kinase assay, BCR-ABL1 Q252H. The data set is classed as biochemical. Particulars: [ATP] = 10 μM; mean of n = 2.

Data set [8] is described as follows: Metabolic stability in rat hepatocytes. The data set is classed as in vitro ADME. Particulars: rat hepatocytes. On the procedure: (§7) All calculations were carried out using Microsoft Excel. Peak areas were determined from extracted ion chromatograms.
For data set [9], the target named is T3, BCR-ABL1 T315I (Homo sapiens, UniProt P00519, T315I).
T3 construct: BCR (fusion partner, as the printed name BCR-ABL1 says)
In words: KinaseProfiler radiometric kinase assay, BCR-ABL1 T315I. The data set is classed as biochemical. Particulars: [ATP] = 10 μM; mean of n = 2.

For data set [10], the system named is mutant BCR-ABL1. In words: KinaseProfiler radiometric kinase assay, mutant BCR-ABL1 kinases as a group. The data set is classed as biochemical, human. Particulars: for IC50: read-out: IC50 against (imatinib resistant / relevant) mutant BCR-ABL1 kinases, group of mutants. The source says: Biochemical Human RTK Kinase Enzymatic Radiometric Assay, KinaseProfiler (Independently Performed by Eurofins Cerep SA, FR)

A short description of data set [11]: Plasma protein binding by equilibrium dialysis, human plasma. The data set is classed as in vitro ADME. Particulars: for % Unbound: human plasma, 360 min, 5 µM. On the procedure:
as §4, §5
Cells were then loaded with 120 μL of the plasma samples and dialyzed against an equal volume of dialysis buffer (PBS). […] At the end of incubation, the lid was removed and 50 μL of post-dialysis samples were removed from both buffer and plasma solution chambers into a separate 96-well plate for analysis. The plasma solutions (50 μL) were then added to the buffer samples along with an equal volume of PBS (50 μL) to the collected plasma solution samples. The plate was shaken at 1,000 rpm for 2 min and 400 μL of acetonitrile containing an appropriate internal standard was added to precipitate protein and release compound. The samples were then vortexed at 1,000 rpm for an additional 10 min followed by centrifugation at 3,220 g for 30 min. Supernatant (250 μL) was then added to a new 96-well plate and centrifuged again at 3,220 g for 30 min and 100 μL of this supernatant was then added to a new 96-well plate for analysis. The samples were analyzed by LC-MS/MS and 100 μL of distilled water was added to each sample prior to analysis.
as §6
For orientation: In equilibrium dialysis only unbound substance equilibrates across the membrane.

Data set [12] concerns the target hERG channel (Homo sapiens, UniProt Q12809). In words: hERG safety evaluation by manual patch-clamp system. Background: The hERG channel carries a current that helps repolarise heart muscle cells.
Data set [13] can be described thus: Plasma protein binding by equilibrium dialysis, mouse plasma. Particulars: 360 min, 5 µM. The data set is classed as in vitro ADME, mouse (CD-1). As for the experimental part:
as §4, §5
Cells were then loaded with 120 μL of the plasma samples and dialyzed against an equal volume of dialysis buffer (PBS). […] The samples were analyzed by LC-MS/MS and 100 μL of distilled water was added to each sample prior to analysis.
as §6

The nature of data set [14]: Metabolic stability in mouse hepatocytes. The data set is classed as in vitro ADME. Particulars: read-out: Remaining Percentages. On the procedure: as §7
The mark [15] stands for this setting: read-out: LMCIint (rate of metabolism).

The structures appear in SMILES notation. ≈ marks a conversion by molar mass, not a printed value. Like-named read-outs stand apart in the source and are kept apart here.

hERG channel, sequence (Q12809 whole entry): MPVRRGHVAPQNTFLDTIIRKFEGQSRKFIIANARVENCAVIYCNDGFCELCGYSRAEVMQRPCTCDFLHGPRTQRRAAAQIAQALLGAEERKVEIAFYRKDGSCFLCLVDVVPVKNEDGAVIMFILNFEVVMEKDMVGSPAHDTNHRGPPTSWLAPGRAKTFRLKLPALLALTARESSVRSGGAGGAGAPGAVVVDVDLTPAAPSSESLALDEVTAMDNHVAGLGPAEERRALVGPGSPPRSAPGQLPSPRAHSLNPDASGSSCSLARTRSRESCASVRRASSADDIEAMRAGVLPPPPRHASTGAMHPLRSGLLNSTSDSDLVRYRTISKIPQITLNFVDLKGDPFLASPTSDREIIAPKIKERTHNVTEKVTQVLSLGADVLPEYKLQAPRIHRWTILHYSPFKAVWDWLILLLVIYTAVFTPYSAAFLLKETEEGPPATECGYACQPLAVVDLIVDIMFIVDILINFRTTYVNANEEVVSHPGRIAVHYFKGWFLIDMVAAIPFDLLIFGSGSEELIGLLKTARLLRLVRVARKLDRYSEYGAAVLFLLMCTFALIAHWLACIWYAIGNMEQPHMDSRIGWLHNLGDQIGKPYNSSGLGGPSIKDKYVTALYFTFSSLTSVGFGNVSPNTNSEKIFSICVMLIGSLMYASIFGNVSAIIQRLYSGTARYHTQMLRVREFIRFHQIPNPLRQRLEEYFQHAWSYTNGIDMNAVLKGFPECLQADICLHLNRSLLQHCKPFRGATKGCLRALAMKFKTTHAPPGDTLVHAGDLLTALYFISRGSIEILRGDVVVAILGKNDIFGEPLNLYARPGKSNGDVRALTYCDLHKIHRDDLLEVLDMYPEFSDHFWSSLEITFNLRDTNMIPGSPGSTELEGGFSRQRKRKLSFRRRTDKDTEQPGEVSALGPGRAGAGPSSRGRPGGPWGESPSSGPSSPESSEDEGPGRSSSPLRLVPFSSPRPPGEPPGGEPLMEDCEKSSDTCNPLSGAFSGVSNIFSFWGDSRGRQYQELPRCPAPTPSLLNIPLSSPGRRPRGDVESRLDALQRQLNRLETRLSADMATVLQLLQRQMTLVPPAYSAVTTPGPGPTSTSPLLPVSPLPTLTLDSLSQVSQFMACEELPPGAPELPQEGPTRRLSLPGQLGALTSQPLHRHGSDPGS

Regarding `COc1cc(Nc2c(C#N)cnc3cc(OCCON4CCN(C)CC4)c(OC)cc23)c(F)cc1Cl` [Compound 15, 4-((4-chloro-2-fluoro-5-methoxyphenyl)amino)-6-methoxy-7-(2-((4-methylpiperazin-1-yl)oxy)ethoxy)quinoline-3-carbonitrile], the solubility (kinetic) (commonly solubility judged after dilution from a stock solution rather than from solid) at 2 h in data set [1] (phosphate buffer, pH 7.4, aqueous buffer) is 43 µM (≈ 22.2 µg/mL). In addition, the values for the half-life at 1 µM in [2] and in [6] were 4.9 min and 4.3 min, respectively. Besides, the microsomal CLint at 1 µM came out at 286 µL/min/mg in data set [2] (setting [15]) and 321 µL/min/mg in data set [6] (setting [15]). In addition, the IC50 in data set [3] was 2 nM; in data set [4], 1 nM; in data set [7], 2 nM; in data set [9], 166 nM; in data set [10], less than 1 nM. Moreover, the fraction unbound at 6 h, 5 µM in data set [5] is 0.049; in [11] (plasma, human, 5 μM, read-out: fu, plasma %), 0.056. Moreover, the half-life (commonly the time in which the quantity being followed falls by half) in data set [8] stood at 12.3 min. Also, the hepatocyte CLint in data set [8] (read-out: HEPCIint (rate of metabolism)) came out at 113 µL/min/1e6 cells. The “BCR-ABL1 kinase activity, in words” value in data set [10] was “single-digit nanomolar biochemical activity”. Besides, the “% Unbound” value in [11] amounted to 5.58%.
With `COc1cc2c(Nc3cccc(OC)c3Cl)c(C#N)cnc2cc1OCCON1CCN(C)CC1` [Compound 17, 4-((2-Chloro-3-methoxyphenyl)amino)-6-methoxy-7-(2-((4-methylpiperazin-1-yl)oxy)ethoxy)quinoline-3-carbonitrile], the “hERG liability, in words” value in [12] is given as “minimal hERG inhibition”. In addition, the “solubility, in words” value in data set [1] is on record as “high aqueous solubility at pH 7.4”. For the same molecule, the figures for the IC50 in data set [3], in data set [7] and in data set [10] were 14 nM, 37 nM and not below 15 nM, respectively. Further, the results for the “% Unbound” value in data set [11] and in [13] were 7.37% and 11.93%, respectively.
For the molecule `COc1cc(Cl)ccc1Nc1c(C#N)cnc2cc(OCCON3CCN(C)CC3)c(OC)cc12` [Compound 20, 4-((4-Chloro-2-methoxyphenyl)amino)-6-methoxy-7-(2-((4-methylpiperazin-1-yl)oxy)ethoxy)quinoline-3-carbonitrile], the IC50 in data set [3] came out at 11 nM; in [7] it was 10 nM. In addition, the share remaining (as a rule, what is left of the initial amount, in per cent) at 0.5 min in [14] (0.5 min) was found to be 100%. For the same molecule, the share remaining at […] in data set [14] (15 min) worked out at 55.5%; in [14] (90 min, BLOD = below level of detection), 6.75%. Besides, the fraction remaining at 0.5 h in data set [14] (30 min) is 28.6%. Besides, the amount remaining at 1 h in [14] (60 min) was found to be 13.3%. Besides, the amount remaining at 2 h in data set [14] (120 min, BLOD = below level of detection) turned out to be 2.89%. In addition, the figures for the “% Unbound” value in [11] and in [13] were 7.73% and 9.71%, respectively.
